As a reminder, the solubility is the concentration that dissolves in the medium under given conditions.

This is an account of results in patent publication US8329644B2, “Lantibiotic-based compounds having antimicrobial activity” (Novacta Biosystems Limited, priority 2007, dated 2012).

Converted amounts (≈) assume the structure as drawn. Where two headings read alike, the source gives them in different places.

Series [1] is described as follows: Water solubility. The class given is physicochemical. The settings on record: aqueous. From the text: Typically, compounds of the invention were isolated using phosphate buffers.
Series [2] is described as follows: Stability in simulated gastric fluid (SGF). The class given is in vitro ADME. As to conditions: 37° C., analytical HPLC. The procedure:
(§1) Nisin, mersacidin, compound I and compound III were tested for their susceptibility towards enzymatic digestion in the stomach. Nisin, mersacidin and compound III were tested for their susceptibility towards enzymatic digestion in the intestine. The SGF and SIF were based on the standard USP solutions for simulated gastric and simulated intestinal fluids and their activity confirmed against Bovine Serum Albumin (Hilger et al, Clin. Exp. Immunol. 2001, 123, 387-94). The compounds were incubated in SGF or SIF at 37° C. and their concentrations quantified by analytical HPLC (UV detection at 210 nm). The potential degradation of each compound was also monitored qualitatively by measuring in vitro antibacterial activity against Micrococcus luteus.

For series [3] the following is noted: rat, 100 mg/kg oral.
Protocol: Male Sprague-Dawley rats were dosed with compound I at 100 mg/kg via the oral route. Faeces and urine were collected over a 48 h period in two batches (at 24 h and 48 h post dose). Blood samples were taken at various time points for the first 24 h.
In series [4] the test system is E. faecium. Nature of the series: MIC susceptibility testing, E. faecium. The class given is cell-based. As to conditions: Enterococcus faecium. The procedure: (§2) Susceptibility testing for all aerobic organisms with the exception of Streptococcus pneumoniae was performed by two-fold serial antibiotic dilutions in Mueller-Hinton Broth supplemented with 50 μg/ml Ca^2+ unless otherwise noted. Susceptibility testing for S. pneumoniae was performed by two-fold serial antibiotic dilutions in Brain-Heart-Infusion Broth supplemented with 50 μg/ml Ca^2+ unless otherwise noted. Actively growing broth cultures were diluted to contain […] by adjusting to an OD600 of 0.2-0.3. They were then diluted a further 1:100 in fresh sterile broth. The assays were performed in duplicate in sterile 96-well microtitre plates in a total volume of 200 μl (160 μl broth, 20 μl antimicrobial agent, 20 μl inoculum) in a concentration range from 64 μg/ml to 0.06 μg/ml. […] Clinical isolates of Clostridium difficile were tested in Wilkins-Chalgren Anaerobe Agar under anaerobic conditions. In all cases, vancomycin was used as a reference antibiotic

Series [5] deals with E. faecalis. Nature of the series: MIC susceptibility testing, E. faecalis. It counts as cell-based. As to conditions: Enterococcus faecalis; E. faecalis 29212; Table 2; read-out: MIC. The procedure:
as §2

For series [6], the system named is S. aureus. In words: MIC susceptibility testing, S. aureus. As to conditions: Staphylococcus aureus, Table 2, read-out: MIC. The class given is cell-based, Staphyloccus aureus. On the procedure:
as §2

Series [7] has as its system S. epidermidis. Nature of the series: MIC susceptibility testing, S. epidermidis. It counts as cell-based, Staphylococcus epidermidis. The settings on record: Staphylococcus epidermidis. On the procedure:
as §2

Series [8] deals with M. luteus. Nature of the series: MIC susceptibility testing, M. luteus. It counts as cell-based. As to conditions: Micrococcus luteus; M. luteus 4698; Table 2; read-out: MIC. The procedure: as §2
Series [9] has as its system S. pneumoniae. In words: MIC susceptibility testing, S. pneumoniae (Brain-Heart-Infusion Broth). The class given is cell-based, Streptococcus pneumoniae. As to conditions: Streptococcus pneumoniae; S. pneumoniae R6; Table 2; read-out: MIC. On the procedure: as §2
Series [10] relates to Clostridium difficile. Nature of the series: MIC, Clostridium difficile in Wilkins-Chalgren Anaerobe Agar. Set-up: key: MIC in μg/ml (two-fold dilutions, 0.06–64). The class given is cell-based. The procedure: as §2
The subject of series [11] is E. coli. Nature of the series: MIC against intestinal flora organisms, E. coli. The class given is cell-based. As to conditions: for MIC: Escherichia coli, read-out: Minimal Inhibitory Concentration (MIC). On the procedure: as §2
In series [12] the test system is Bifidobacterium adolescentis. Nature of the series: MIC against intestinal flora organisms, Bifidobacterium adolescentis. It counts as cell-based. The settings on record: NCTC11814; Bifidobacterium adolescentis NCTC 11814; Table 5; read-out: Minimal Inhibitory Concentration (MIC).
In series [13] the test system is Bifidobacterium longum. In words: MIC against intestinal flora organisms, Bifidobacterium longum. The class given is cell-based. The settings on record: NCTC11818; Bifidobacterium longum NCTC 11818; Table 5; read-out: Minimal Inhibitory Concentration (MIC).
Series [14] has as its system Bacteroides fragilis. In words: MIC against intestinal flora organisms, Bacteroides fragilis. It counts as cell-based. As to conditions: NCTC9343; Bacteroides fragilis NCTC 9343; Table 5; read-out: Minimal Inhibitory Concentration (MIC).
For series [15], the system named is Bacteroides thetaiotaomicron. In words: MIC against intestinal flora organisms, Bacteroides thetaiotaomicron. The class given is cell-based. As to conditions: NCTC10582; Bacteroides thetaiotaomicron NCTC 10582; Table 5; read-out: Minimal Inhibitory Concentration (MIC).
Series [16] has as its system C. difficile strain VPI 10463. Nature of the series: Hamster model of C. difficile associated cecitis, first experiment (FIG. 1). It counts as in vivo. The settings on record: C. difficile VPI 10463, three times daily at 50 mg/kg/day, 5-day dosing period, groups of 6. On the procedure:
In the first experiment (FIG. 1) groups of 6 animals were dosed with approximately 10^7 cells of C. difficile strain VPI 10463 and 24 hours later with a subcutaneous dose of 10 mg/kg clindamycin phosphate.
The procedure as described induced a C. difficile infection in the test animals, from which all animals treated only with vehicle died within 3 days.

Series [17] relates to Micrococcus luteus. Nature of the series: In vitro antibacterial activity against Micrococcus luteus during SIF incubation. It counts as cell-based. As to conditions: after incubation in SIF. On the procedure:
as §1

Consider `CC[C@H](C)[C@@H]1NC(=O)[C@@H]2NC(=O)[C@H](CC(C)C)NC(=O)[C@H](NC(=O)[C@@H]3CSC[C@@H](N)C(=O)N[C@@H](CO)C(=O)NCC(=O)N[C@@H](Cc4c[nH]c5ccccc45)C(=O)N[C@@H](C(C)C)C(=O)N3)[C@H](C)SC[C@H](NC(=O)[C@H](CCC(=O)O)NC1=O)C(=O)NCC(=O)N[C@H]1C(=O)N[C@@H](CC(C)C)C(=O)N[C@@H](C(C)C)C(=O)N[C@@H](CS[C@H]2C)C(=O)N[C@@H](C)C(=O)N[C@H](C(=O)NCCO)CS[C@H]1C` [Compound I, Deoxy-Actagardine B N-[2-ethanolamine]monocarboxamide], for which the concentration in solution in [1] (solubility) came to 15 mg/mL (≈ 7820 µM). In addition, the “degradation in Simulated Gastric Fluid” value in [2] is “did not show appreciable degradation”. Besides, in series [3], the “material recovered from plasma or urine” value is “No material was recovered”.
`CN[C@H](CC(C)C)C(=O)N[C@H]1C(=O)N[C@@H](CC(N)=O)C(=O)N[C@H]2C(=O)N[C@H]3C(=O)N[C@H](C(=O)N[C@H](C(=O)O)c4cc(O)cc(O)c4-c4cc3ccc4O)[C@H](O)c3ccc(c(Cl)c3)Oc3cc2cc(c3O[C@@H]2O[C@H](CO)[C@@H](O)[C@H](O)[C@H]2O[C@H]2C[C@](C)(N)[C@H](O)[C@H](C)O2)Oc2ccc(cc2Cl)[C@H]1O` [Vancomycin, vancomycin, reference compound]: the MIC was 0.5 µg/mL (≈ 0.345 µM) in [4] (ATCC19579, E. faecium (VSE) ATCC 19579, Table 5, read-out: Minimal Inhibitory Concentration (MIC)); 4 µg/mL (≈ 2.76 µM) in series [4] (ATCC29212, read-out: Minimal Inhibitory Concentration (MIC), E. faecium (VSE) ATCC 29212, Table 5); 4 µg/mL (≈ 2.76 µM) in [4] (E. faecium 19579, Table 2, read-out: MIC); > 64 µg/mL in series [4] (E. faecium 7131121, Table 2, read-out: MIC); > 64 µg/mL in [4] (VRE, E. faecium (VRE) (clinical isolate), Table 5, first isolate, read-out: Minimal Inhibitory Concentration (MIC)); > 64 µg/mL in series [4] (VRE, E. faecium (VRE) (clinical isolate), Table 5, second isolate, read-out: Minimal Inhibitory Concentration (MIC)). For the same compound, the MIC was 4 µg/mL (≈ 2.76 µM) in [5]; 1 µg/mL (≈ 0.69 µM) in series [6] (S. aureus R33); 2 µg/mL (≈ 1.38 µM) in series [6] (S. aureus SH1000); 2 µg/mL (≈ 1.38 µM) in [7]; 2 µg/mL (≈ 1.38 µM) in series [8]; > 64 µg/mL in series [9]. In addition, the MIC in series [10] (Clostridioides difficile, C. difficile 027C, Table 4, read-out: MIC) was determined as 0.5 µg/mL (≈ 0.345 µM); in series [10] (Clostridioides difficile, C. difficile 027SM, Table 4, read-out: MIC) it was 0.5 µg/mL (≈ 0.345 µM); in series [10] (Clostridioides difficile, C. difficile 19126, Table 4, read-out: MIC), 1 µg/mL (≈ 0.69 µM); in series [10] (Clostridioides difficile, C. difficile 37779, Table 4, read-out: MIC), 1 µg/mL (≈ 0.69 µM); in series [10] (Clostridioides difficile, C. difficile B32, Table 4, read-out: MIC) it was 1 µg/mL (≈ 0.69 µM); in [10] (Clostridioides difficile, C. difficile E4, Table 4, read-out: MIC) it was 1 µg/mL (≈ 0.69 µM). The MIC in [10] (Clostridioides difficile, C. difficile E16, Table 4, read-out: MIC) came out at 1 µg/mL (≈ 0.69 µM); in series [10] (Clostridioides difficile, C. difficile E101, Table 4, read-out: MIC), 1 µg/mL (≈ 0.69 µM); in series [10] (Clostridioides difficile, C. difficile P24, Table 4, read-out: MIC), 1 µg/mL (≈ 0.69 µM); in series [10] (Clostridioides difficile, C. difficile P49, Table 4, read-out: MIC), 0.5 µg/mL (≈ 0.345 µM); in series [10] (Clostridioides difficile, C. difficile P59, Table 4, read-out: MIC), 1 µg/mL (≈ 0.69 µM); in series [10] (Clostridioides difficile, C. difficile P62, Table 4, read-out: MIC), 0.5 µg/mL (≈ 0.345 µM). Further, the MIC is > 64 µg/mL in series [11] (ATCC25922, E. coli ATCC 25922, Table 5); > 64 µg/mL in [11] (E. coli DC2 (membrane more susceptible), Table 5, second line); 1 µg/mL (≈ 0.69 µM) in series [12]; 1 to 2 µg/mL (≈ 0.69 to 1.38 µM) in series [13]; 32 µg/mL (≈ 22.1 µM) in series [14]; 64 µg/mL (≈ 44.2 µM) in series [15]. In series [11] (E. coli DC2 (membrane more susceptible), Table 5, first line), the “Minimal Inhibitory Concentration (MIC)” value was >64 µg/mL. For the same compound, the “survival of infected animals” value in [16] was “survived for the duration of the entire 5-day dosing period”.
With “Deoxy-Actagardine B N-[2-hydroxy-2-phenylethylamine]monocarboxamide [Compound XX]”, the MIC in [10] (C. difficile 027C, Table 4A) came out at 2; in series [10] (C. difficile 630, Table 4A), 2; in [10] (C. difficile 19126, Table 4A) it was 2; in [10] (C. difficile 37779, Table 4A) it was 2.
Take “Deoxy-actagardine B (2-hydroxypiperazine) monocarboxamide [Compound XXIII]”: the MIC in series [10] (C. difficile 027C, Table 4A) was found to be 4; in [10] (C. difficile 630, Table 4A) it was 2; in series [10] (C. difficile 19126, Table 4A), 4; in [10] (C. difficile 37779, Table 4A) it was 4.
For “Deoxy-actagardine B (L-serine methyl ester) monocarboxamide [Compound XXI]”, the MIC stood at 2 in [10] (C. difficile 027C, Table 4A); 4 in series [10] (C. difficile 630, Table 4A); 4 in [10] (C. difficile 19126, Table 4A); 4 in [10] (C. difficile 37779, Table 4A).
As to “Deoxyactagardine B (N-(2-hydroxyethyl)ethylenediamine) monocarboxamide [Compound XXII]”, the MIC in [10] (C. difficile 027C, Table 4A) is 2; in series [10] (C. difficile 630, Table 4A), 2; in series [10] (C. difficile 19126, Table 4A), 2; in [10] (C. difficile 37779, Table 4A), 2.
As for mersacidin, in series [17], the “in vitro activity against M. luteus during the course of the experiment” value was “remained unaltered”.
